Assay results reported in patent publication US11319298B2 (Merck Sharp & Dohme Corp., priority 2016, dated 2022).

These compounds were tested against T1, human M4 muscarinic acetylcholine receptor (Homo sapiens, UniProt P08173) (assay: human FLIPR-based M4 PAM assay, CHO-K1 cells stably transfected with human M4 receptor and chimeric G-protein Gαqi5). Conditions: inflection point (IP) of dose response curve; acetylcholine added at 20% of maximum response; CHO-K1 human M4/Gαqi5, FLIPR Tetra.
T1 construct: expressed in transfected cells; host or cells: CHO-K1
T1 sequence (P08173 1-479): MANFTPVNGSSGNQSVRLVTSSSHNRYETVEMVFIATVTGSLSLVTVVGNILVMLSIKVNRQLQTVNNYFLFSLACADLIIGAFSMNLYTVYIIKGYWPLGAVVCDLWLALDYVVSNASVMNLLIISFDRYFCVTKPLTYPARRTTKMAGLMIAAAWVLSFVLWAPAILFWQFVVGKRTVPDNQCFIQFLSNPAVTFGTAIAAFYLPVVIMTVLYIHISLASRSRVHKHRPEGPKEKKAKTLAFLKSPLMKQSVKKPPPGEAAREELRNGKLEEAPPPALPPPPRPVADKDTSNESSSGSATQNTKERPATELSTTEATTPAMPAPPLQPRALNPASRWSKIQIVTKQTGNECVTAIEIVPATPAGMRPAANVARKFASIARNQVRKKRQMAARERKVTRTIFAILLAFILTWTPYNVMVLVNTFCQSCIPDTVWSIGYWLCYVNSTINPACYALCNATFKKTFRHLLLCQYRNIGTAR
Type: cell-based
Method in brief: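 The FLIPR read recorded 4 min after compound was added across a concentration range, then 3.5 min after acetylcholine giving 20% of its maximal response, with an occasional extra EC70 addition. Cells were dye-loaded for about 1 h at 37 °C. Potency is the curve inflection point from a four-parameter logistic fit.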

| EC50 [nM] | SMILES |
| --- | --- |
| 62 | Cc1cc(C#N)nnc1N1CCC(Oc2cccc(C#N)c2)CC1 [Example 259, 6-(4-(3-cyanophenoxy)piperidin-1-yl)-5-methylpyridazine-3-carbonitrile] |
| 2470 | Cc1c(-c2ccc(F)cc2)ncnc1N1CCC(Oc2cccc(C#N)c2)CC1 [Example 254, 3-((1-(6-(4-fluorophenyl)-5-methylpyrimidin-4-yl)piperidin-4-yl)oxy)benzonitrile] |
| 265 | COc1ccc(OC2CCN(c3nnc(C(=O)NCc4cc(C)n(C)n4)cc3C)CC2)cn1 [Example 155, N-[(1,5-dimethyl-1H-pyrazol-3-yl)methyl]-6-{4-[(6-methoxypyridin-3-yl)oxy]piperidin-1-yl}-5-methylpyridazine-3-carboxamide] |
| 179 | COc1ncc(OC2CCN(c3nnc(C(=O)NCc4ccncc4)cc3C)CC2)cc1F [Example 140, 6-{4-[(5-fluoro-6-methoxypyridin-3-yl)oxy]piperidin-1-yl}-5-methyl-N-(pyridin-4-ylmethyl)pyridazine-3-carboxamide] |
| 187 | COCc1nc(Cl)c(C)c(N2CCC(Oc3ccc(OC)nc3)CC2)n1 [Example 78, 4-chloro-2-(methoxymethyl)-6-(4-((6-methoxypyridin-3-yl)oxy)piperidin-1-yl)-5-methylpyrimidine] |
| 1040 | COc1ccc(OC2CCN(c3ncnc(N4C[C@H](F)[C@@H](F)C4)c3C)CC2)cn1 [Example 230, 4-((3S,4S)-3,4-difluoropyrrolidin-1-yl)-6-(4-((6-methoxypyridin-3-yl)oxy)piperidin-1-yl)-5-methylpyrimidine] |
| 1500 | COc1ccc(OC2CCN(c3nc(C)nc(N)c3C)CC2)cn1 [Example 87, 6-(4-((6-methoxypyridin-3-yl)oxy)piperidin-1-yl)-2,5-dimethylpyrimidin-4-amine] |
| 1090 | COc1ccc(OC2CCN(c3ncnc(N4CCC(F)(F)C4)c3C)CC2)cn1 [Example 231, 4-(3,3-difluoropyrrolidin-1-yl)-6-(4-((6-methoxypyridin-3-yl)oxy)piperidin-1-yl)-5-methylpyrimidine] |
| 563 | COc1ccc(OC2CCN(c3nnc(C(=O)NCc4ccc(S(C)(=O)=O)cc4)cc3C)CC2)cn1 [Example 174, 6-{4-[(6-methoxypyridin-3-yl)oxy]piperidin-1-yl}-5-methyl-N-[4-(methylsulfonyl)benzyl]pyridazine-3-carboxamide] |
| 34 | COc1ccc(OC2CCN(c3nnc(C(=O)NCc4ccncc4)cc3C)CC2)cn1 [Example 109, 6-{4-[(6-methoxypyridin-3-yl)oxy]piperidin-1-yl}-5-methyl-N-(pyridin-4-ylmethyl)pyridazine-3-carboxamide] |
| 1820 | COc1ccc(OC2CCN(c3ncnc(N4CCCC4)c3C)CC2)cn1 [Example 237, 4-(4-((6-methoxypyridin-3-yl)oxy)piperidin-1-yl)-5-methyl-6-(pyrrolidin-1-yl)pyrimidine] |
| 142 | Cc1cc(C(=O)NC2CCc3ncccc3C2)nnc1N1CCC(OCC2CC2)CC1 (stereo not shown) [Example 133, 6-[4-(cyclopropylmethoxy)piperidin-1-yl]-5-methyl-N-(5,6,7,8-tetrahydroquinolin-6-yl)pyridazine-3-carboxamide] |
| 94 | COc1ccc(OC2CCN(c3nc(C)nc(Cl)c3C)CC2)cc1 [Example 62, 4-chloro-6-(4-(4-methoxyphenoxy)piperidin-1-yl)-2,5-dimethylpyrimidine] |
| 262 | COc1ccc(OC2CCN(c3nnc(C(=O)NCc4ccncc4Cl)cc3C)CC2)cn1 [Example 154, N-[(3-chloropyridin-4-yl)methyl]-6-{4-[(6-methoxypyridin-3-yl)oxy]piperidin-1-yl}-5-methylpyridazine-3-carboxamide] |
| 803 | COc1ccc(OC2CCN(c3nc(SC)ncc3C#N)CC2)cc1 [Example 95, 4-(4-(4-methoxyphenoxy)piperidin-1-yl)-2-(methylthio)pyrimidine-5-carbonitrile] |
| 434 | Cc1cc(C(=O)N[C@H]2CCc3cccnc3C2)nnc1N1CCC(Oc2cccc(C#N)c2)CC1 [Example 164A, (S)-6-[4-(3-cyanophenoxy)piperidin-1-yl]-5-methyl-N-(5,6,7,8-tetrahydroquinolin-7-yl)pyridazine-3-carboxamide] |
